Where “and” joins values, the source holds several entries; their conditions need not be identical. Equal entries are not always repeated. Entries after “also recorded” stand apart in the source; their conditions may differ. Where two headings read alike, the source gives them in different places.
Legend:
BRDT-BD2 [1] = target: BRDT-BD2
BRDT-BD1 [2] = target: BRDT-BD1
BRDT-BD2 [3] = target: BRDT-BD2 (Homo sapiens, UniProt Q58F21); assay: AlphaScreen competition assay with biotinylated JQ1, BRDT-BD2; type: binding; parameters: BRDT-BD2, NP_001717.3 amino acid 269− 380; made in house; host or cells: E. coli NiCo21 (DE3); conditions: for BRDT-BD2 activity / affinity: result in words
BRD4-BD2 [4] = target: BRD4-BD2
BRDT-BD1 [5] = target: T1, BRDT-BD1 (Homo sapiens, UniProt Q58F21); assay: AlphaScreen competition assay with biotinylated JQ1, BRDT-BD1; type: binding; conditions: for inhibition at 10 µM: read-out: Inhibition at 10 µM for BRDT-BD1
T1 construct: NP_001717.3 amino acid 21− 137; made in house; host or cells: E. coli NiCo21 (DE3)

BRD4-BD1 [6] = target: T2, BRD4-BD1 (Homo sapiens, UniProt O60885); assay: AlphaScreen competition assay with biotinylated JQ1, BRD4-BD1; type: binding
T2 construct: amino acid 44− 168; made in house; host or cells: E. coli NiCo21 (DE3)

[7] = Metabolic stability assay in mouse liver microsomes; type: in vitro ADME; conditions: for half-life at 2 μM / t1/2, min MLM: mouse liver microsomes, 37 °C, data >60 min are an extrapolated estimate, 2.0 μM; for half-life at 2 μM: read-out: t1/2, min MLM; for mouse microsomal stability: result in words
Description: (§1) 2d) Metabolic stability assay in liver microsomes. […]
(§2) The reactions are terminated by adding equivalent
(§3) volume of ice-cold CH3OH and vortexed.
(§4) temperature was ma i ntained at 40 °C.
(§5) (acetonitrile containing 0.1% formic acid). […]

BRD4-BD1 [8] = target: BRD4-BD1
BRD4-BD2 [9] = target: BRD4-BD2 (Homo sapiens, UniProt O60885); assay: AlphaScreen competition assay with biotinylated JQ1, BRD4-BD2; type: binding; parameters: BD2, NP_055114.1 amino acid 333− 460; made in house; host or cells: E. coli NiCo21 (DE3)
[10] = Metabolic stability assay in human liver microsomes; type: in vitro ADME; conditions: for half-life at 2 μM / t1/2, min HLM: human liver microsomes, 37 °C, data >60 min are an extrapolated estimate, 2.0 μM; for half-life at 2 μM: read-out: t1/2, min HLM
Description: as §1, §2, §3, §4, §5

[11] = ratio of AlphaScreen IC50 values
[12] = AlphaScreen, biotinylated JQ1 as ligand
[13] = AlphaScreen, biotinylated JQ1 as ligand, NE: no effect at 20 µM

COc1ccc(NC(=O)c2ccc3c(c2)c(-c2cc4ccccc4n2C)nn3C)cc1OC
IC50 (BRDT-BD2 [1]): 101 nM

COc1ccc(NC(=O)c2ccc3c(c2)c(-c2ccc(N)cc2C)nn3C)cc1NC(=O)c1ccccc1
IC50 (BRDT-BD2 [1]): 35 nM

Cc1cc(N)ccc1-c1nn(C)c2ccc(C(=O)Nc3ccccc3)cc12
IC50 (BRDT-BD2 [1]): 90 nM | IC50 (BRDT-BD1 [2]): > 10000 nM

CNC(=O)c1ccc(C(=O)Nc2cc(NC(=O)c3ccc4c(c3)c(-c3cc5ccccc5n3C)nn4C)ccc2OC)cc1 [Compound 3]
BRDT-BD2 activity / affinity (BRDT-BD2 [3]; AlphaScreen): low nanomolar affinity | IC50 (BRDT-BD2 [1]): 22 nM

CNC(=O)c1ccc(C(=O)Nc2cc(NC(=O)c3ccc4c(c3)c(-c3cc5ccccc5n3C)nn4C)ccc2C)cc1 [Compound 8]
IC50 (BRD4-BD2 [4]): 31 nM | IC50 (BRDT-BD2 [3]): 13 nM | BRDT-BD2 activity / affinity (BRDT-BD2 [3]; AlphaScreen): low nanomolar affinity | BRDT-BD2 vs. BRD4-BD2 (BRDT-BD2 [3]; [11]): 2.4 | BRDT-BD2 vs. BRDT-BD1 (BRDT-BD2 selectivity) (BRDT-BD2 [3]; [11]): >750 | IC50 (BRDT-BD1 [5]): > 10000 nM | inhibition at 10 µM (BRDT-BD1 [5]): 11% | IC50 (BRD4-BD1 [6]): 26200 nM | half-life at 2 μM [7]: 0.85 h | IC50 (BRD4-BD1 [8]): 26200 nM | IC50 (BRDT-BD2 [1]): 13 nM | % inhibition at 10 µM (BRDT-BD1 [2]): 11% | IC50 (BRDT-BD1 [2]): > 10000 nM | IC50 (BRD4-BD2 [9]): 31 nM | BRD4-BD2 vs. BRD4-BD1 (BRD4-BD2 selectivity) (BRD4-BD2 [9]; [11]): 850 | half-life at 2 μM [10]: 2.5 h

CNC(=O)c1ccc(C(=O)Nc2cc(NC(=O)c3ccc4c(c3)c(-c3ccc(N)nc3)nn4C)ccc2C)cc1 [Compound 10]
IC50 (BRD4-BD2 [4]): 46 nM | IC50 (BRDT-BD2 [3]): 17 nM | BRDT-BD2 activity / affinity (BRDT-BD2 [3]; AlphaScreen): slightly lower affinity than CDD-1102 | BRDT-BD2 vs. BRD4-BD2 (BRDT-BD2 [3]; [11]): 2.7 | BRDT-BD2 vs. BRDT-BD1 (BRDT-BD2 selectivity) (BRDT-BD2 [3]; [11]): >600 | inhibition at 10 µM (BRDT-BD1 [5]): 16% | IC50 (BRD4-BD1 [6]): > 10000 nM | inhibition at 10 µM (BRD4-BD1 [6]; read-out: Inhibition at 10 µM for BRD4-BD1): 20% | half-life at 2 μM [7]: 3.17 h | mouse microsomal stability [7]: high metabolic stability; also recorded: high mouse microsomal stability | % inhibition at 10 µM (BRD4-BD1 [8]): 20% | IC50 (BRD4-BD1 [8]): > 10000 nM | IC50 (BRDT-BD2 [1]): 17 nM | % inhibition at 10 µM (BRDT-BD1 [2]): 16% | IC50 (BRDT-BD1 [2]): > 10000 nM | IC50 (BRD4-BD2 [9]): 46 nM | BRD4-BD2 vs. BRD4-BD1 (BRD4-BD2 selectivity) (BRD4-BD2 [9]; [11]): >210 | half-life at 2 μM [10]: 4 h | human microsomal stability ([10]; result in words): high metabolic stability

CNC(=O)c1ccc(C(=O)Nc2cc(NC(=O)c3ccc4c(c3)c(-c3ccncc3)nn4C)ccc2C)cc1 [Compound 12]
BRDT-BD2 activity / affinity (BRDT-BD2 [3]; AlphaScreen): weaker-binding | IC50 (BRDT-BD2 [1]): 978 nM

CNC(=O)c1ccc(C(=O)Nc2cc(NC(=O)c3ccc4c(c3)c(-c3cnc(N)nc3)nn4C)ccc2C)cc1 [Compound 13]
BRDT-BD2 activity / affinity (BRDT-BD2 [3]; AlphaScreen): lower affinity than compound 10 | IC50 (BRDT-BD2 [1]): 139 nM | IC50 (BRDT-BD1 [2]): > 10000 nM

CNC(=O)c1ccc(C(=O)Nc2cc(NC(=O)c3ccc4c(c3)c(-c3ccc(N)nc3C)nn4C)ccc2C)cc1 [Compound 14]
BRDT-BD2 activity / affinity (BRDT-BD2 [3]; AlphaScreen): lower affinity than compound 10 | IC50 (BRDT-BD2 [1]): 94 nM

CNC(=O)c1ccc(C(=O)Nc2cc(NC(=O)c3ccc4c(c3)c(-c3cnc(N)cc3C)nn4C)ccc2C)cc1 [Compound 15]
IC50 (BRD4-BD2 [4]): 140 nM | IC50 (BRDT-BD2 [3]; [12]): 22 nM | BRDT-BD2 activity / affinity (BRDT-BD2 [3]; AlphaScreen): lower affinity than compound 10 | BRDT-BD2 vs. BRD4-BD2 (BRDT-BD2 [3]; ratio of AlphaScreen IC50 values, listed as 15 (CDD-1349)): 6.4 | BRDT-BD2 vs. BRD4-BD2 (BRDT-BD2 [3]; ratio of AlphaScreen IC50 values, listed as CDD-1349): sixfold | IC50 (BRDT-BD1 [5]; [13]): > 20000 nM | IC50 (BRD4-BD1 [6]; [13]): > 20000 nM | t1/2, min MLM [7]: 2.5 h | mouse microsomal stability [7]: high mouse microsomal stability | IC50 (BRDT-BD2 [1]): 22 nM | BRD4-BD2 vs. BRD4-BD1 (BRD4-BD2 selectivity) (BRD4-BD2 [9]): >140 | IC50 (BRD4-BD2 [9]; [12]): 140 nM | t1/2, min HLM [10]: 3.67 h

CC(=O)Nc1cc(NC(=O)c2ccc3c(c2)c(-c2ccc(N)nc2)nn3C)ccc1C [Compound 17]
IC50 (BRD4-BD2 [4]): 51 nM | BRDT-BD2 vs. BRDT-BD1 (BRDT-BD2 selectivity) (BRDT-BD2 [3]): 770 | IC50 (BRDT-BD2 [3]; [12]): 47 nM | BRDT-BD2 vs. BRD4-BD2 (BRDT-BD2 [3]; [11]): 1.1 | IC50 (BRDT-BD1 [5]; [13]): 36200 nM | IC50 (BRD4-BD1 [6]; [13]): 25100 nM | t1/2, min MLM [7]: 3.33 h | mouse microsomal stability [7]: high mouse microsomal stability | IC50 (BRD4-BD1 [8]): 25100 nM | IC50 (BRDT-BD2 [1]): 47 nM | IC50 (BRDT-BD1 [2]): > 10000 nM and 36200 nM | BRD4-BD2 vs. BRD4-BD1 (BRD4-BD2 selectivity) (BRD4-BD2 [9]): 490 | IC50 (BRD4-BD2 [9]; [12]): 51 nM | t1/2, min HLM [10]: 8.17 h

CC(=O)Nc1cccc(NC(=O)c2ccc3c(c2)c(-c2ccc(N)cc2C)nn3C)c1 [Compound 21]
IC50 (BRD4-BD2 [4]): 21 nM | BRDT-BD2 vs. BRDT-BD1 (BRDT-BD2 selectivity) (BRDT-BD2 [3]): 1,400 | IC50 (BRDT-BD2 [3]; [12]): 14 nM | BRDT-BD2 activity / affinity (BRDT-BD2 [3]; AlphaScreen): minimal effects on potency | BRDT-BD2 vs. BRD4-BD2 (BRDT-BD2 [3]; [11]): 1.5 | IC50 (BRDT-BD1 [5]; [13]): 19700 nM | IC50 (BRD4-BD1 [6]; [13]): 14100 nM | t1/2, min MLM [7]: 0.15 h | IC50 (BRD4-BD1 [8]): 14100 nM | IC50 (BRDT-BD2 [1]): 14 nM | IC50 (BRDT-BD1 [2]): > 10000 nM and 19700 nM | BRD4-BD2 vs. BRD4-BD1 (BRD4-BD2 selectivity) (BRD4-BD2 [9]): 670 | IC50 (BRD4-BD2 [9]; [12]): 21 nM | t1/2, min HLM [10]: 3 h

CNC(=O)c1cc(NC(=O)c2ccc3c(c2)c(-c2ccc(N)cc2C)nn3C)ccc1C [Compound 22]
IC50 (BRD4-BD2 [4]): 20 nM | IC50 (BRDT-BD2 [3]): 18 nM | BRDT-BD2 activity / affinity (BRDT-BD2 [3]; AlphaScreen): minimal effects on potency | BRDT-BD2 vs. BRD4-BD2 (BRDT-BD2 [3]; [11]): 1.1 | BRDT-BD2 vs. BRDT-BD1 (BRDT-BD2 selectivity) (BRDT-BD2 [3]; [11]): 590 | IC50 (BRDT-BD1 [5]): 10700 nM | IC50 (BRD4-BD1 [6]): 10900 nM | half-life at 2 μM [7]: 2.5 h | mouse microsomal stability [7]: high mouse microsomal stability | IC50 (BRD4-BD1 [8]): 10900 nM | IC50 (BRDT-BD2 [1]): 18 nM | IC50 (BRDT-BD1 [2]): > 10000 nM and 10700 nM | IC50 (BRD4-BD2 [9]): 20 nM | BRD4-BD2 vs. BRD4-BD1 (BRD4-BD2 selectivity) (BRD4-BD2 [9]; [11]): 540 | half-life at 2 μM [10]: 7.67 h

COc1ccc(NC(=O)c2ccc3c(c2)c(-c2ccc(N)cc2C)nn3C)cc1 [Compound 24]
BRDT-BD2 activity / affinity (BRDT-BD2 [3]; AlphaScreen): dramatic loss of activity | IC50 (BRDT-BD2 [1]): 54 nM

COc1ccc(N(C)C(=O)c2ccc3c(c2)c(-c2ccc(N)cc2C)nn3C)cc1 [Compound 26]
BRDT-BD2 activity / affinity (BRDT-BD2 [3]; AlphaScreen): loss of potency | IC50 (BRDT-BD2 [1]): > 1000 nM | IC50 (BRDT-BD1 [2]): > 10000 nM

COc1ccc(NC(=O)c2ccc3nn(C)c(-c4ccc(N)cc4C)c3c2)cc1 [Compound 27]
BRDT-BD2 activity / affinity (BRDT-BD2 [3]; AlphaScreen): dramatic loss of activity; also recorded: inactivity | IC50 (BRDT-BD2 [1]): 17200 nM | IC50 (BRDT-BD1 [2]): > 10000 nM

Source: PMC7936271, “Discovery and characterization of bromodomain 2–specific inhibitors of BRDT” (Proceedings of the National Academy of Sciences of the …, 2021)
